# Experiment: RP-HPLC mobility of peptide before and after H2O2 oxidation (hydrophilicity)
# Format: physicochemical
# Details: RP-HPLC/LC-MS, C18 column, H2O/CH3CN with TFA; before and after 3% H2O2 oxidation; Supplementary Figure S1A,B
# Experimental: GDF11[48-64]wt was converted to the variant with oxidized methionines by treatment with 3% H2O2, monitoring the reaction progression by reverse-phase HPLC chromatography (RP-HPLC) and mass spectrometry, using the un-oxidized precursor as control. The occurrence of the peroxide oxidation rendered the peptide more hydrophilic than its unoxidized counterpart, as clearly indicated in Supplementary Figure S1A,B by the shift in the RP-HPLC mobility of GDF11[48-64]ox to shorter retention time (9.97 min) with respect to that of GDF11[48-64]wt (11.41 min).
# All protected amino acids, including 7-N-Fmoc-aminocoumarin-4-acetic acid (Fmoc-ACA-OH), Fmoc-Met(O)-OH, the coupling agents (1-[Bis(dimethylamino)methylene]-1H-1,2,3-triazol [4,5-b]pyridinium 3-oxid-hexafluorophosphate (Hexafluorophosphate Azabenzotriazole Tetramethyl Uronium, HATU), diisopropylcarbodiimide (DIC), ethyl cyanohydroxyiminoacetate (OXYMA)) and Fmoc-Rink Amide AM Resin used for peptide synthesis were purchased from IRIS Biotech GmbH (Marktrewitz, DE). Acetonitrile (CH3CN), dimethylformamide (DMF), trifluoroacetic acid (TFA), and methanol (CH3OH) were purchased from ROMIL (Dublin, Ireland). […]
# Figure S1. Oxidation reaction of GDF11[48-64]wt with hydrogen peroxide monitored by LC-ESI-TOF-MS (LC-MS) analysis. […] After incubation, the samples were collected and analyzed by LC-MS. […]
row,Substance,RP-HPLC retention time (shift to shorter time = more hydrophilic)
1,"Ac-EYM(ox)FM(ox)QKYPHTHLVQQA-NH2 [GDF11[48-64] wt ox, GDF11[48-64]wt bearing sulphoxide groups on M50 and M52, by 3% H2O2 treatment]",9.97 min
2,"Ac-EYMFMQKYPHTHLVQQA-NH2 [GDF11[48-64]wt, peptide reproducing the 48–64 region of GDF11 protein, acetylated and amidated]",11.41 min

# From publication PMC8745263 (International Journal of Molecular Sciences, 2021)
